Patent US6632418B2, “Radioligands and their use for identifying potassium channel modulators” (Abbott Laboratories, priority 2001, dated 2003)
Where two headings read alike, the source gives them in different places.

What was measured:
[1] = biological target: T1, ATP-sensitive potassium channels (Cavia porcellus, UniProt A0A286XYR9); assay: Radioligand (Example 1) binding assay, guinea-pig cardiac ventricle membranes; conditions: for effect on specific binding of Example 1 (in words): guinea-pig cardiac membranes
Experimental: Membrane Preparation: Guinea-pig cardiac ventricles and bladder membranes were prepared by standard procedures, Gopalakrishnan, M., Johnson, D. E., Janis, R. A. & Triggle, D. J. (1991) Journal of Pharmacology and Experimental Therapeutics, 257, 1162-71; Russ, U., Metzger, F., Kickenweiz, E., Hambrock, A., Krippeit-Drews, P. & Quast, U. (1997) Br. J. Pharmacol., 122, 1119-1126. Briefly, ventricles and bladders were quickly removed from male guinea-pigs (Charles River) and placed in ice-cold binding buffer. Tissues were cleansed of adherent connective tissue, chopped into small pieces and disrupted using Tekmar polytron in about 15-vol./g tissue weight. Homogenates were centrifuged at 45,000×g and the membrane pellets were resuspended in the assay buffer. Membrane preparations from other tissues, cells, both clonal and transfected with KATP subunits, may also be used. Clonal cell lines or transfected cell lines can be cultured by standard tissue culture techniques. When cells were confluent, membrane preparations were made by removal of media followed by scraping the monolayer in ice-cold Tris HCl buffer (pH 7.2). The suspension was then centrifuged at 45,000×g for 20 minutes and the pellet was resuspended in the assay buffer for use in radioligand assays.
Binding Assay: A radioligand of formula (I) such as 9-(4-fluoro-3-[I^125]iodophenyl)-2,3,5,9-tetrahydro-4H-pyrano[3,4-b]thieno[2,3-e]pyridin-8(7H)-one 1,1-dioxide (Example 1) (specific activity, 2000 Ci/mmol) was stored in ethanol. Prior to use, the desired amount of Example 1 was dried under a gentle stream of nitrogen gas and reconstituted in the assay buffer (usually prepared as a 10×stock). Guinea-pig ventricle membranes were incubated in a total 0.25 mL volume of HEPES buffer (composition, NaCl, 139 mM; KCl, 5 mM, MgCl2, 25 mM; CaCl2, 1.25 mM; pH 7.4 at 25° C.) containing an ATP regenerating system (creatine phosphate (40 mM), creatine phosphokinase (100 enzyme units) and varying concentrations of Na2ATP (0.01-3 mM) with Example 1 and varying concentrations of test compounds at 37° C. for 90 minutes. These conditions have been previously employed by Gopalakrishnan et al., 1991 (see above), hereby incorporated by reference, wherein the levels of ATP were consistently maintained since free ADP is converted back to ATP by creatine phosphate and creatine is regenerated to creatine phosphate by the enzyme creatine phosphokinase.
Saturation binding of Example 1 was performed with varying concentrations of Example 1. For inhibition assays, samples were incubated in a final volume of 0.25 mL of buffer containing 1-2 nM of Example 1 with varying concentrations of the test compounds. Incubations were terminated by rapid vacuum filtration through GF/B filters followed by rinsing twice with ice-cold 50 mM Tris HCl (pH 7.4). Radioactivity bound to the filters was assessed by gamma counting. Specific radioligand binding is defined by the inclusion of 10 μM of unlabeled Example 1 and was obtained by subtracting the nonspecific binding from the total binding to membranes and filters.
Membrane protein concentration was determined by the method of Lowry et al Gopalakrishnan, M., Triggle, D. J., Rutledge, A., Kwon, Y. W., Bauer, J. A. & Fung, H. L. (1991) Am. J. Physiol., 261, H1979-H1987; Janis, R. A., Maurer, S. C., Sarmiento, J. G., Bolger, G. T. & Triggle, D. J. (1982). Eur. J. Pharmacol., 82, 191-4.
The equilibrium dissociation constant (KD) and maximal density of binding sites (Bmax) of Example 1 was determined by non-linear regression of the saturation binding isotherm. The Ki values were calculated from the concentration inhibition curve by the method of Cheng and Prusoff (1973) Biochem.Pharmacol.,22, 3099-3108. Data is presented as means±S.E.M.

[2] = biological target: ATP-sensitive potassium channel; assay: Comparison of the profile of the novel radioligand with [^3H]P1075 in membrane preparations; assay type: binding; conditions: radioligand comparison table; read-out: Affinity
[3] = biological target: T1, ATP-sensitive potassium channels; assay: Radioligand (Example 1) binding assay, guinea-pig cardiac ventricle membranes; conditions: without ATP regenerating system
[4] = cardiac membranes, in the presence of the ATP regenerating system, Cheng-Prusoff, read-out: Ki value for displacement of specific Example 1 binding
[5] = quantity not given, Ki per method, mean±S.E.M., read-out: displacement of specific Example 1 binding by KATP channel blockers

T1 sequence (A0A286XYR9 1-1546): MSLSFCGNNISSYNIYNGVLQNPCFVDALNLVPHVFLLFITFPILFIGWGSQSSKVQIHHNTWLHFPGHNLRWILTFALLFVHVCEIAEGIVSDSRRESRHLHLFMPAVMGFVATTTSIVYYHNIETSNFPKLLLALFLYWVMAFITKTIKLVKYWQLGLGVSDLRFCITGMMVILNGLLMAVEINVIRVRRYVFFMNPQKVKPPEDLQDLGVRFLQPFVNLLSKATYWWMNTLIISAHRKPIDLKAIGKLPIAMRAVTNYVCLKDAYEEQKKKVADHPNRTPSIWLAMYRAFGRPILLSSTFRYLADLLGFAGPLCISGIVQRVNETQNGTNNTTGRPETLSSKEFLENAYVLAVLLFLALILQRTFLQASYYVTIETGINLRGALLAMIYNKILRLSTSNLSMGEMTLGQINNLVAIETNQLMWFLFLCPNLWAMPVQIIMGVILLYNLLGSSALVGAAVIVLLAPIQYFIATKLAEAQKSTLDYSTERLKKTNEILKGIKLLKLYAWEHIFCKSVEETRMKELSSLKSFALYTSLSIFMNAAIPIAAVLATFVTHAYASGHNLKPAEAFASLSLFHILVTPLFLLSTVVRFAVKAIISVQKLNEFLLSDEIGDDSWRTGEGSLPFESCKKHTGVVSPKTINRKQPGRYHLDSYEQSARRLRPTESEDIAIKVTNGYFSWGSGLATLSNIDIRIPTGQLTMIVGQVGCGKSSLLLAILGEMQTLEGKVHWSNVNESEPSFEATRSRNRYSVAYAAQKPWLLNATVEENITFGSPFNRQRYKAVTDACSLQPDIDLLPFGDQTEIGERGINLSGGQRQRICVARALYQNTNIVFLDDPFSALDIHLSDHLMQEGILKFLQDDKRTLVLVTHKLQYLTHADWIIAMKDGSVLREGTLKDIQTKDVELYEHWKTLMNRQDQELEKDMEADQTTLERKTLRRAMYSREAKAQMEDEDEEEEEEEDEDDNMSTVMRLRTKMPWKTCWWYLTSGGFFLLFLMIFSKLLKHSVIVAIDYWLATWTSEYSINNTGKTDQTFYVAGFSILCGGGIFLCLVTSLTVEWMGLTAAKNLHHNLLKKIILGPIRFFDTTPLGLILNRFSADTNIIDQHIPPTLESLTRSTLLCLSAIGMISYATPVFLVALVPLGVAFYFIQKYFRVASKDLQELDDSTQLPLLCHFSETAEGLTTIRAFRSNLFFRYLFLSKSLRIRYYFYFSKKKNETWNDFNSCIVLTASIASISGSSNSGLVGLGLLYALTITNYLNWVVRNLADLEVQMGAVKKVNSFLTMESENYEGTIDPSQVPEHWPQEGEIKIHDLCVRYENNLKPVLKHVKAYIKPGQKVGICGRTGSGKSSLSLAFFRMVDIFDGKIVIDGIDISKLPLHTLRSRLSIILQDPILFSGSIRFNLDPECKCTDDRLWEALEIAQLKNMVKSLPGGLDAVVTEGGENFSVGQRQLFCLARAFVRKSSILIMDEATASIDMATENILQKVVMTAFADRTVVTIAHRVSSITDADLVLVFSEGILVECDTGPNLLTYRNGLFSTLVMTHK

CCOc1ccccc1N/C(=C\[N+](=O)[O-])NC(C)C(C)(C)C (stereo not drawn) [Bay X 9228]
effect on specific binding of Example 1 (in words) [1]: displaced

O=C1COCC2=C1C(c1ccc(F)c(I)c1)C1=C(CCS1(=O)=O)N2 (stereo not drawn) [Example 1, 9-(4-fluoro-3-[I^125]iodophenyl)-2,3,5,9-tetrahydro-4H-pyrano[3,4-b]thieno[2,3-e]pyridin-8(7H)-one 1,1-dioxide]
Ki [1, 4]: 5.8 nM
Kd ([1]; guinea-pig cardiac ventricle membranes, single set of saturable sites, n=3, mean±S.E.M., read-out: KD value (equilibrium dissociation constant), saturation binding): 5.83 ± 0.77 nM
Kd [2]: 5 nM

O=C1COCC2=C1C(c1ccc(F)c([125I])c1)C1=C(CCS1(=O)=O)N2 (stereo not drawn) [Example 1, 9-(4-fluoro-3-[I^125]iodophenyl)-2,3,5,9-tetrahydro-4H-pyrano[3,4-b]thieno[2,3-e]pyridin-8(7H)-one 1,1-dioxide]
maximum binding capacity (Bmax) ([1]; guinea-pig cardiac ventricle membranes, saturation binding, n=3): 107.7±12.7 femtomol/mg protein
specific binding in the presence of just ATP alone [3]: no specific binding was detected

O=C1CCCC2=C1[C@H](c1ccc(F)c(Br)c1)C1=C(CCS1(=O)=O)N2 [Example A-278637]
effect on specific binding of Example 1 (in words) [1]: displaced

CCC(C)(C)N=C(NC#N)Nc1cccnc1 [Example P1075]
effect on specific binding of Example 1 (in words) [1]: displaced

O=C1COCC2=C1C(c1ccc(F)c(I)c1)C1=C(CCS1(=O)=O)N2 (stereo not drawn) [Unlabeled Example 1, 9-(4-fluoro-3-iodophenyl)-2,3,5,9-tetrahydro-4H-pyrano[3,4-b]thieno[2,3-e]pyridin-8(7H)-one 1,1-dioxide]
Ki [1, 4]: 5.8 nM

CC1(C)Oc2ccc(C#N)cc2C(N2CCCC2=O)C1O (stereo not drawn) [cromakalim]
effect on specific binding of Example 1 (in words) [1]: displaced

CC1=NS(=O)(=O)c2cc(Cl)ccc2N1 [diazoxide]
Ki ([1]; cardiac membranes, rank order potency, read-out: Ki value for displacement of Example 1 binding): 44800 nM

Cc1cnc(C(=O)NCCc2ccc(S(=O)(=O)NC(=O)NC3CCCCC3)cc2)cn1 [glipizide]
Ki [1, 5]: 4500 ± 400 nM

COc1ccc(Cl)cc1C(=O)NCCc1ccc(S(=O)(=O)NC(=O)NC2CCCCC2)cc1 [glyburide]
Ki [1, 5]: 47.6 ± 9.4 nM

COC(=O)C1=C(C)NC(C)=C(C(=O)OC(C)C)C1c1cccc2nonc12 (stereo not drawn) [isradipine]
effect on specific binding of Example 1 (in words) [1]: unaffected

CC(N/C(=N\C#N)Nc1ccncc1)C(C)(C)C (stereo not drawn) [pinacidil]
effect on specific binding of Example 1 (in words) [1]: displaced
